Test results published in ChEMBL document CHEMBL6153174, “Design and Synthesis of Novel Deazapurine DNMT 1 Inhibitors with In Vivo Efficacy in DLBCL” (J Med Chem, 2025).

Key:
TMD8 [1] = assay: Induction of apoptosis in human TMD8 cells assessed as early apoptotic cells at 1 uM measured after 48 hrs by annexin-V/FITC and PI staining based flow cytometry analysis (reference value: 9.15%); format: functional
[2] = Toxicity in mouse assessed as effect on weight gain at 10 mg/kg, iv administered three times a week; format: organism-based; conditions: in vivo
[3] = biological target: DNA (cytosine-5)-methyltransferase 3B (Homo sapiens, UniProt Q9UBC3); assay: Inhibition of DNMT3B (unknown origin) at 5 uM preincubated for 15 mins followed by substrate and [3H-SAM] addition and measured after 60 mins by microbeta analysis relative to control; conditions: time 75.0 min
TMD8 [4] = assay: Induction of cell cycle arrest in human TMD8 cells assessed as accumulation of cells at G2/M phase at 0.25 uM incubated for 24 hrs by PI staining based flow cytometry analysis (reference value: 20.4%); format: functional
DOHH-2 [5] = assay: Antiproliferative activity against human DOHH-2 cells assessed as inhibition of cell viability measured after 72 hrs by MTT assay; format: functional, cell-based; conditions: DOHH-2, 72 h
DOHH-2 [6] = assay: Induction of cell cycle arrest in human DOHH-2 cells assessed as accumulation of cells at G2-M phase at 0.5 uM incubated for 24 hrs by PI staining based flow cytometry analysis (reference value: 27.8%); format: functional
[7] = Antitumor activity against human TMD8 cells harbouring TP53 mutant xenografted in mouse model assessed as tumor inhibition rate at 10 mg/kg, iv administered three times a week in presence of chidamide relative to control; format: functional; parameters: scale not given: the % may be the effect or the level left
[8] = Upregulation of FAS mRNA level in human DOHH-2 cells assessed as fold change at 300 nM measured after 6 days by PCR analysis; format: functional; conditions: time 6 day
DOHH-2 [9] = assay: Induction of cell cycle arrest in human DOHH-2 cells assessed as accumulation of cells at S phase at 0.25 uM incubated for 24 hrs by PI staining based flow cytometry analysis (reference value: 40.7%); format: functional
[10] = biological target: T1, DNA (cytosine-5)-methyltransferase 3A (Homo sapiens, UniProt Q9Y6K1); assay: Inhibition of DNMT3A (unknown origin) at 5 uM preincubated for 15 mins followed by substrate and [3H-SAM] addition and measured after 60 mins by microbeta analysis relative to control; conditions: time 75.0 min
[11] = Terminal elimination half life in Sprague-Dawley rat at 10 mg/kg, iv measured upto 24 hrs by LC/MS/MS analysis; format: ADME, organism-based; conditions: in vivo, read-out: beta t1/2 (converted)
[12] = Antitumor activity against human TMD8 cells harbouring […] xenografted in mouse model assessed as tumor inhibition rate at 10 mg/kg, iv administered three times a week in presence of chidamide relative to control; format: functional; parameters: scale not given: the % may be the effect or the level left
TMD8 [13] = assay: Induction of apoptosis in human TMD8 cells assessed as early apoptotic cells measured after 48 hrs by annexin-V/FITC and PI staining based flow cytometry analysis; format: functional, cell-based; conditions: dose 1-10 µM
TMD8 [14] = assay: Induction of cell cycle arrest in human TMD8 cells assessed as accumulation of cells at G0-G1 phase at 1.0 uM incubated for 24 hrs by PI staining based flow cytometry analysis (reference value: 40.7%); format: functional
TMD8 [15] = assay: Induction of cell cycle arrest in human TMD8 cells assessed as accumulation of cells at S phase at 0.25 uM incubated for 24 hrs by PI staining based flow cytometry analysis (reference value: 39.0%); format: functional
TMD8 [16] = assay: Induction of apoptosis in human TMD8 cells assessed as late apoptotic cells at 2.51 uM measured after 48 hrs by annexin-V/FITC and PI staining based flow cytometry analysis (reference value: 5.13%); format: functional
DOHH-2 [17] = assay: Induction of cell cycle arrest in human DOHH-2 cells assessed as accumulation of cells at G0-G1 phase at 1 uM incubated for 24 hrs by PI staining based flow cytometry analysis (reference value: 27.1%); format: functional
[18] = Antitumor activity against human TMD8 cells harbouring […] xenografted in mouse model assessed as tumor inhibition rate at 10 mg/kg, iv administered three times a week relative to control; format: functional; parameters: scale not given: the % may be the effect or the level left
[19] = Antitumor activity against human TMD8 cells harbouring TP53 mutant xenografted in mouse model assessed as tumor inhibition rate at 10 mg/kg, iv administered three times a week relative to control; format: functional; parameters: scale not given: the % may be the effect or the level left
TMD8 [20] = assay: Induction of apoptosis in human TMD8 cells assessed as late apoptotic cells at 10 uM measured after 48 hrs by annexin-V/FITC and PI staining based flow cytometry analysis (reference value: 5.13%); format: functional
TMD8 [21] = assay: Antitumor activity against human TMD8 cells xenografted in mouse model assessed as tumor inhibition rate at 10 mg/kg, iv administered three times a week relative to control; format: functional; parameters: scale not given: the % may be the effect or the level left
[22] = Subacute toxicity in Balb/C mouse assessed as effect on peripheral blood at 10 mg/kg, iv administered three times in a week for 2 weeks; format: organism-based; conditions: in vivo, 336 h
TMD8 [23] = assay: Induction of apoptosis in human TMD8 cells assessed as late apoptotic cells at 1 uM measured after 48 hrs by annexin-V/FITC and PI staining based flow cytometry analysis (reference value: 5.13%); format: functional
[24] = Subacute toxicity in Balb/C mouse assessed as effect on kidney at 30 mg/kg, iv administered three times in a week for 2 weeks; format: organism-based; conditions: in vivo, 336 h
[25] = AUC (0 to t) in Sprague-Dawley rat at 10 mg/kg, iv measured upto 24 hrs by LC/MS/MS analysis; format: ADME, organism-based; conditions: Sprague-Dawley, in vivo
[26] = biological target: DNA (cytosine-5)-methyltransferase 1 (Homo sapiens, UniProt P26358); assay: Inhibition of DNMT1 (unknown origin) at 5 uM preincubated for 15 mins followed by substrate and [3H-SAM] addition and measured after 60 mins by microbeta analysis relative to control; conditions: time 75.0 min
[27] = Antiproliferative activity against human NK-YS cells assessed as inhibition of cell viability measured after 72 hrs by MTT assay; format: functional, cell-based
TMD8 [28] = assay: Induction of apoptosis in human TMD8 cells assessed as late apoptotic cells measured after 48 hrs by annexin-V/FITC and PI staining based flow cytometry analysis; format: functional, cell-based; conditions: dose 1-10 µM
[29] = Subacute toxicity in Balb/C mouse assessed as change in body weight at 10 to 30 mg/kg, iv administered three times in a week for 2 weeks; format: organism-based; conditions: in vivo, 336 h, dose 10-30 mg/kg
DOHH-2 [30] = assay: Induction of cell cycle arrest in human DOHH-2 cells assessed as accumulation of cells at S phase at 0.5 uM incubated for 24 hrs by PI staining based flow cytometry analysis (reference value: 40.7%); format: functional
TMD8 [31] = assay: Induction of apoptosis in human TMD8 cells assessed as early apoptotic cells at 2.5 uM measured after 48 hrs by annexin-V/FITC and PI staining based flow cytometry analysis (reference value: 9.15%); format: functional
DOHH-2 [32] = assay: Induction of apoptosis in human DOHH-2 cells assessed as early apoptotic cells at 0.25 uM measured after 48 hrs by annexin-V/FITC and PI staining based flow cytometry analysis (reference value: 5.69%); format: functional
[33] = biological target: T1, DNA (cytosine-5)-methyltransferase 3A; assay: Inhibition of DNMT3A (unknown origin) preincubated for 15 mins followed by substrate and [3H-SAM] addition and measured after 60 mins by microbeta analysis
TMD8 [34] = assay: Induction of cell cycle arrest in human TMD8 cells assessed as accumulation of cells at S phase at 0.5 uM incubated for 24 hrs by PI staining based flow cytometry analysis (reference value: 39.0%); format: functional

T1 sequence (Q9Y6K1 whole entry, looked up): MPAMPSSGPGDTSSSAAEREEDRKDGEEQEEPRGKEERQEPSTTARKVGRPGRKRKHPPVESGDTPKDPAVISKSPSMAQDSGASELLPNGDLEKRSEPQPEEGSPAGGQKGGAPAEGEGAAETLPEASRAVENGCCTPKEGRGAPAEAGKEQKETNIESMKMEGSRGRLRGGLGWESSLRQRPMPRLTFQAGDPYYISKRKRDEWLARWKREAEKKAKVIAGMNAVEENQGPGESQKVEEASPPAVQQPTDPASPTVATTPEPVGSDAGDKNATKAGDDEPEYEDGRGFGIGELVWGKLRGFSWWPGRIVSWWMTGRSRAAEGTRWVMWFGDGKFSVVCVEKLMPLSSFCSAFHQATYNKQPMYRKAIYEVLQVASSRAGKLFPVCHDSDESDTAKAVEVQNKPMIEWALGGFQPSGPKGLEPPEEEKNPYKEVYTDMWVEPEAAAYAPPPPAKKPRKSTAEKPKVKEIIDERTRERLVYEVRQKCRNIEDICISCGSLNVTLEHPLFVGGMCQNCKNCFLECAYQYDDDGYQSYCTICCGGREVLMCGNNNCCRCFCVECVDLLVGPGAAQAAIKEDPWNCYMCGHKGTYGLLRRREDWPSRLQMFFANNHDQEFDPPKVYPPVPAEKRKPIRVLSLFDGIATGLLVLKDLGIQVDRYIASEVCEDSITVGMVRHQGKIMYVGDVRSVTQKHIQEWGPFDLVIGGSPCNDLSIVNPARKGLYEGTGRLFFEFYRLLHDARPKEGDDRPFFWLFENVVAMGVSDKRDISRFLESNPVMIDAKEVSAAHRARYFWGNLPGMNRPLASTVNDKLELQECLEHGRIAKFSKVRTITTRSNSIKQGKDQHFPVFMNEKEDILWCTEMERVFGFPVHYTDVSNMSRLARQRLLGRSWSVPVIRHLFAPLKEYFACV
DNA (cytosine-5)-methyltransferase 1, sequence (P26358 whole entry): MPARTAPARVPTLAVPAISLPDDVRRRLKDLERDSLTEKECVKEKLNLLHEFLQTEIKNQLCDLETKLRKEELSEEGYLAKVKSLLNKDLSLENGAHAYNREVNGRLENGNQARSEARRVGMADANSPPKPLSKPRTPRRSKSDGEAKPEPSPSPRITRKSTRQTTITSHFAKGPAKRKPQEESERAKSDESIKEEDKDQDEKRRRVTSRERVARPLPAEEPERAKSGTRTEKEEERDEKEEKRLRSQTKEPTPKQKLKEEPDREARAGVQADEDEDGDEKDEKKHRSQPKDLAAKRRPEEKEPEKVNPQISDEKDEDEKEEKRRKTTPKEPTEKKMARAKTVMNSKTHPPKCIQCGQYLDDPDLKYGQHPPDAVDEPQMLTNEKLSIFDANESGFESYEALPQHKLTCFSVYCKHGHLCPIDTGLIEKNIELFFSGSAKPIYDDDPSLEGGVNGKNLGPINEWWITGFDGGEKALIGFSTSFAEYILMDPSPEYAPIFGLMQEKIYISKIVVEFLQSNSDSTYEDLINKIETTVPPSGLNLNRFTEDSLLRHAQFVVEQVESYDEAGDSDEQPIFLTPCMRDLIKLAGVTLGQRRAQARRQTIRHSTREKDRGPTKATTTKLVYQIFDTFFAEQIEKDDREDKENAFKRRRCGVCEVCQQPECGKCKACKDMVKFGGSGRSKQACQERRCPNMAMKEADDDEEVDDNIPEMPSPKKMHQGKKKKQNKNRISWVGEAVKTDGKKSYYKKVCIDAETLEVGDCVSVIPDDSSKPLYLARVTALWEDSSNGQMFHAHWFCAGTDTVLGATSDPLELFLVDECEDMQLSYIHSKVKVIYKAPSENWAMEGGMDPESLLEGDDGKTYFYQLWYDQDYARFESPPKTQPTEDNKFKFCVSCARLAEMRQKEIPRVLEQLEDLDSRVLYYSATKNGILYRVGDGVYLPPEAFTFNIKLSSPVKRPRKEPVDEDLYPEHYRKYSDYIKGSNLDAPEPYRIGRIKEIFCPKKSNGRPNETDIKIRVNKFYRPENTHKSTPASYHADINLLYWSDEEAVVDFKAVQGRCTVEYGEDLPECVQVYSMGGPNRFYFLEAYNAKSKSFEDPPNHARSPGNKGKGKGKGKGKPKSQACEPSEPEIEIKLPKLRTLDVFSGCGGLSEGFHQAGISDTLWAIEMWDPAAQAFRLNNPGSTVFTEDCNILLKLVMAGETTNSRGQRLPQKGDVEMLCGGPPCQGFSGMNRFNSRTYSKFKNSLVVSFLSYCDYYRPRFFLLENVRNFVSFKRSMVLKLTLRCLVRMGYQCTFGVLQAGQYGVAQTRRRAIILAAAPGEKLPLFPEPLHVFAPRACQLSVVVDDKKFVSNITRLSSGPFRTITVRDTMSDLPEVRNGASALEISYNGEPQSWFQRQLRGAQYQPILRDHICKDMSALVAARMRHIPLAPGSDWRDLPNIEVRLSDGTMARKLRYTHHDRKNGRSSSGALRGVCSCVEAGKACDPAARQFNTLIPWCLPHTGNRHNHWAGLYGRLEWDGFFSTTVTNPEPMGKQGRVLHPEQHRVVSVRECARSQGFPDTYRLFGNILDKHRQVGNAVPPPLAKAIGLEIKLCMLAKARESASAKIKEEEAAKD

In the case of `CN1CCC(Nc2nc(-c3ccnc(F)c3)nc3c2ccn3CCCN2CCCC2)CC1`, the Activity (TMD8 [1]) is reported as 15.7%, the Activity [2] is reported as “Non-toxic” and the inhibition [3] is reported as 1.1%. The Activity (TMD8 [4]) was 24.4%, the IC50 (DOHH-2 [5]) was 0.19 µM and the Activity (DOHH-2 [6]) was 29.1%. For the same molecule, the Activity [7] was 83.2%, the “fold change (FC)” value [8] was 3.05 and the Activity (DOHH-2 [9]) was 37.3%. It also gave an inhibition [10] of 11%, a half-life [11] of 10.8 h and an Activity [12] of 78.1%. For the same molecule, the Activity (TMD8 [13]) was “Dose-dependent-effect”, the Activity (TMD8 [14]) was 32.5% and the Activity (TMD8 [15]) was 37.8%. For the same molecule, the Activity (TMD8 [16]) was 10.5%, the Activity (DOHH-2 [17]) was 42.2% and the Activity [18] was 65.7%. It also gave an Activity [19] of 58%, an Activity (TMD8 [20]) of 12.9% and an Activity (TMD8 [21]) of 54.61%. The Activity [22] was “Non-toxic”, the Activity (TMD8 [23]) was 6.88% and the Activity [24] was “Non-toxic”. The AUC(0-t) at 24 h [25] was 1010 ng·h/mL, the inhibition [26] was 75% and the IC50 [27] was 0.77 µM. The Activity (TMD8 [28]) was “Dose-dependent-effect”, the Activity [29] was “Non-toxic” and the Activity (DOHH-2 [30]) was 26.6%. It also gave an Activity (TMD8 [31]) of 23%, an Activity (DOHH-2 [32]) of 10.5% and an IC50 [33] of 14.4 µM. For the same molecule, the Activity (TMD8 [34]) was 32.3%.
